From ChEMBL document CHEMBL3611975, “New carbocyclic N(6)-substituted adenine and pyrimidine nucleoside analogues with a bicyclo[2.2.1]heptane fragment as sugar moiety; synthesis, antiviral, anticancer activity and X-ray crystallography” (Bioorg Med Chem, 2015)

Experiments:
[1] = Selectivity index, ratio of CTD50 for African green monkey Vero cells to EC50 for Human coxsackievirus B4 Powers; assay type: toxicity, cell-based
OVCAR-4 = experiment: Cytotoxicity against human OVCAR4 cells assessed as growth at 10^-5 M relative to control
LOX IMVI = experiment: Cytotoxicity against human LOXIMVI cells assessed as growth at 10^-5 M relative to control
NCI/ADR-RES = experiment: Cytotoxicity against human NCI/ADR-RES cells assessed as growth at 10^-5 M relative to control
CCRF-CEM = experiment: Cytotoxicity against human CCRF-CEM cells assessed as growth at 10^-5 M relative to control
SK-MEL-2 = experiment: Cytotoxicity against human SK-MEL-2 cells assessed as growth at 10^-5 M relative to control
RPMI-8226 = experiment: Cytotoxicity against human RPMI8226 cells assessed as growth at 10^-5 M relative to control
HCC 2998 = experiment: Cytotoxicity against human HCC2998 cells assessed as growth at 10^-5 M relative to control
T47D = experiment: Cytotoxicity against human T47D cells assessed as growth at 10^-5 M relative to control
MDA-MB-435 = experiment: Cytotoxicity against human MDA-MB-435 cells assessed as growth at 10^-5 M relative to control
A549 = experiment: Cytotoxicity against human A549 cells assessed as growth at 10^-5 M relative to control
OVCAR-8 = experiment: Cytotoxicity against human OVCAR8 cells assessed as growth at 10^-5 M relative to control
SR = experiment: Cytotoxicity against human SR cells assessed as growth at 10^-5 M relative to control
RXF 393 = experiment: Cytotoxicity against human RXF393 cells assessed as growth at 10^-5 M relative to control
HCT-15 = experiment: Cytotoxicity against human HCT15 cells assessed as growth at 10^-5 M relative to control
HCT-116 = experiment: Cytotoxicity against human HCT116 cells assessed as growth at 10^-5 M relative to control
SNB-75 = experiment: Cytotoxicity against human SNB75 cells assessed as growth at 10^-5 M relative to control
MCF7 = experiment: Cytotoxicity against human MCF7 cells assessed as growth at 10^-5 M relative to control
A498 = experiment: Cytotoxicity against human A498 cells assessed as growth at 10^-5 M relative to control
Influenza A virus = experiment: Antiviral activity against Influenza A virus (A/Puerto Rico/8/1934(H1N1)) infected in MDCK cells assessed as decrease in virus titer after 48 hrs by MTT assay; assay type: functional, organism-based
[2] = Cytotoxicity against African green monkey Vero cells assessed as cell viability after 72 hrs by MTT assay; assay type: cell-based; conditions: chlorocebus sabaeus, read-out: CTD50
MDA-MB-468 = experiment: Cytotoxicity against human MDA-MB-468 cells assessed as growth at 10^-5 M relative to control
DU-145 = experiment: Cytotoxicity against human DU145 cells assessed as growth at 10^-5 M relative to control
IGROV-1 = experiment: Cytotoxicity against human IGROV1 cells assessed as growth at 10^-5 M relative to control
SW-620 = experiment: Cytotoxicity against human SW620 cells assessed as growth at 10^-5 M relative to control
NCI-H23 = experiment: Cytotoxicity against human NCI-H23 cells assessed as growth at 10^-5 M relative to control
SF-539 = experiment: Cytotoxicity against human SF539 cells assessed as growth at 10^-5 M relative to control
KM12 = experiment: Cytotoxicity against human KM12 cells assessed as growth at 10^-5 M relative to control
SK-MEL-28 = experiment: Cytotoxicity against human SK-MEL-28 cells assessed as growth at 10^-5 M relative to control
M14 = experiment: Cytotoxicity against human M14 cells assessed as growth at 10^-5 M relative to control
OVCAR-3 = experiment: Cytotoxicity against human OVCAR3 cells assessed as growth at 10^-5 M relative to control
SN12C = experiment: Cytotoxicity against human SN12C cells assessed as growth at 10^-5 M relative to control
HOP-92 = experiment: Cytotoxicity against human HOP92 cells assessed as growth at 10^-5 M relative to control
786-0 = experiment: Cytotoxicity against human 786-0 cells assessed as growth at 10^-5 M relative to control
HL-60(TB) = experiment: Cytotoxicity against human HL-60(TB) cells assessed as growth inhibition at 10^-5 M relative to control; assay type: functional; conditions: read-out: GI
NCI-H322M = experiment: Cytotoxicity against human NCI-H322M cells assessed as growth at 10^-5 M relative to control
MOLT-4 = experiment: Cytotoxicity against human MOLT4 cells assessed as growth at 10^-5 M relative to control
UACC-62 = experiment: Cytotoxicity against human UACC62 cells assessed as growth at 10^-5 M relative to control
HOP-62 = experiment: Cytotoxicity against human HOP62 cells assessed as growth at 10^-5 M relative to control
HT-29 = experiment: Cytotoxicity against human HT-29 cells assessed as growth at 10^-5 M relative to control

Row | Compound | selectivity ratio [1] | growth, % of control at 10 µM (OVCAR-4) [%] | growth, % of control at 10 µM (LOX IMVI) [%] | growth, % of control at 10 µM (NCI/ADR-RES) [%] | growth, % of control at 10 µM (CCRF-CEM) [%] | growth, % of control at 10 µM (SK-MEL-2) [%] | growth, % of control at 10 µM (RPMI-8226) [%] | growth, % of control at 10 µM (HCC 2998) [%] | growth, % of control at 10 µM (T47D) [%] | growth, % of control at 10 µM (MDA-MB-435) [%] | growth, % of control at 10 µM (A549) [%] | growth, % of control at 10 µM (OVCAR-8) [%] | growth, % of control at 10 µM (SR) [%] | growth, % of control at 10 µM (RXF 393) [%] | growth, % of control at 10 µM (HCT-15) [%] | growth, % of control at 10 µM (HCT-116) [%] | growth, % of control at 10 µM (SNB-75) [%] | growth, % of control at 10 µM (MCF7) [%] | growth, % of control at 10 µM (A498) [%] | EC50 (Influenza A virus) [µM] | also measured
1 | OC[C@H]1[C@@H]2C[C@H](n3cnc4c(NCCc5ccccc5)ncnc43)[C@H]1C[C@@H]2Cl | 3 | 93.6 | 92.7 | 88.2 | 87.6 | 97.2 | 87.9 | 89.8 | 86.8 | 99.7 | 92.6 | 95.7 | 84.1 | 87 | 81.7 | 101 | 106 | 89.9 | 95.5 | 15 | CC50 at 72 h [2]: 14 µM; growth, % of control at 10 µM (MDA-MB-468): 89.4%; growth, % of control at 10 µM (DU-145): 98%; growth, % of control at 10 µM (IGROV-1): 105%; growth, % of control at 10 µM (SW-620): 99.7%; growth, % of control at 10 µM (NCI-H23): 93.2%; growth, % of control at 10 µM (SF-539): 98.2%; growth, % of control at 10 µM (KM12): 102%; growth, % of control at 10 µM (SK-MEL-28): 107%; growth, % of control at 10 µM (M14): 101%; growth, % of control at 10 µM (OVCAR-3): 110%; growth, % of control at 10 µM (SN12C): 99.9%; growth, % of control at 10 µM (HOP-92): 92.4%; growth, % of control at 10 µM (786-0): 97%; inhibition of growth at 10 µM (HL-60(TB)): 120%; growth, % of control at 10 µM (NCI-H322M): 99.5%; growth, % of control at 10 µM (MOLT-4): 83.3%; growth, % of control at 10 µM (UACC-62): 93.1%; growth, % of control at 10 µM (HOP-62): 94.2%; growth, % of control at 10 µM (HT-29): 95.3%
2 | COc1ccc(CCNc2ncnc3c2ncn3[C@H]2C[C@H]3[C@H](CO)[C@@H]2C[C@@H]3Cl)cc1 | 1 | 94.3 | 96.7 | 86.5 | 108 | 101 | 82.5 | 97.2 | 66.1 | 114 | 83.3 | 101 | 86.7 | 104 | 95.5 | 100 | 92.8 | 94.1 | 99.9 | 16 | CC50 at 72 h [2]: 14 µM; growth, % of control at 10 µM (MDA-MB-468): 101%; growth, % of control at 10 µM (DU-145): 105%; growth, % of control at 10 µM (IGROV-1): 98.7%; growth, % of control at 10 µM (SW-620): 108%; growth, % of control at 10 µM (NCI-H23): 102%; growth, % of control at 10 µM (SF-539): 95.1%; growth, % of control at 10 µM (KM12): 97%; growth, % of control at 10 µM (SK-MEL-28): 104%; growth, % of control at 10 µM (M14): 98.3%; growth, % of control at 10 µM (OVCAR-3): 111%; growth, % of control at 10 µM (SN12C): 102%; growth, % of control at 10 µM (HOP-92): 114%; growth, % of control at 10 µM (786-0): 101%; inhibition of growth at 10 µM (HL-60(TB)): 94.7%; growth, % of control at 10 µM (NCI-H322M): 89.2%; growth, % of control at 10 µM (MOLT-4): 103%; growth, % of control at 10 µM (UACC-62): 99.6%; growth, % of control at 10 µM (HOP-62): 107%; growth, % of control at 10 µM (HT-29): 87.9%
3 | CCOc1ncnc2c1ncn2[C@H]1C[C@H]2[C@H](CO)[C@@H]1C[C@@H]2Cl | 2 | 108 | 90.9 | 90.8 | 129 | 108 | 121 | 98.9 | 103 | 106 | 99 | 106 | 97.5 | 106 | 95.7 | 105 | 83.1 | 95.2 | 88.8 | 225 | CC50 at 72 h [2]: 208 µM; growth, % of control at 10 µM (MDA-MB-468): 98.6%; growth, % of control at 10 µM (DU-145): 105%; growth, % of control at 10 µM (IGROV-1): 95.4%; growth, % of control at 10 µM (SW-620): 109%; growth, % of control at 10 µM (NCI-H23): 87.9%; growth, % of control at 10 µM (SF-539): 102%; growth, % of control at 10 µM (KM12): 101%; growth, % of control at 10 µM (SK-MEL-28): 100%; growth, % of control at 10 µM (M14): 111%; growth, % of control at 10 µM (OVCAR-3): 111%; growth, % of control at 10 µM (SN12C): 108%; growth, % of control at 10 µM (HOP-92): 124%; growth, % of control at 10 µM (786-0): 108%; inhibition of growth at 10 µM (HL-60(TB)): 95.4%; growth, % of control at 10 µM (NCI-H322M): 89.9%; growth, % of control at 10 µM (MOLT-4): 111%; growth, % of control at 10 µM (UACC-62): 104%; growth, % of control at 10 µM (HOP-62): 106%; growth, % of control at 10 µM (HT-29): 96.5%
